Experimental data from US9771372B2, “Compounds useful as S100-inhibitors” (Active Biotech AB, priority 2014, dated 2017).

Biological target: T1, interaction between biotinylated human S100A9 and human RAGE-Fc (Homo sapiens, UniProt P06702)
T1 construct: made in house; host or cells: E. coli BL21(DE3)/pET1120 (pLR757)
T1 sequence (P06702 1-114): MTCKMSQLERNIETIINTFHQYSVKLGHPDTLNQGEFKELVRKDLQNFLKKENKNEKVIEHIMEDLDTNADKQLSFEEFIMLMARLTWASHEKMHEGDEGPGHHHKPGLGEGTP
Test: AlphaScreen inhibition assay, Biot-hS100A9:hRAGE-Fc (S100A9-RAGE inhibition assay)
Format: binding
Settings: biot-hS100A9 and rhRAGE-Fc, Ca2+ and Zn2+ in buffer
Description: FIG. 1 is a schematic representation of an assay of the inhibition of the interaction between biotinylated human S100A9 and human RAGE-Fc using a small molecule S100A9 binder.
Inhibition Assay, Biot-hS100A9:hRAGE-Fc
The AlphaScreen (Amplified Luminescent Proximity Homogeneous Assay) contains two types of beads, Alpha Donor beads and Acceptor beads (PerkinElmer). Upon laser excitation at 680 nm a photosensitizer in the Donor bead converts ambient oxygen to a more excited singlet state. The singlet oxygen molecule diffuses (maximum 200 nm) to react with a thioxene derivative in the Acceptor bead and generates a chemiluminescence reaction. Fluorophores in the Acceptor bead subsequently emit light at 520-620 nm which can be detected in the EnVision® Multilabel plate Reader (PerkinElmer). The beads are light sensitive and all work with the beads is performed under subdued light conditions or using green filters on light sources (Roscolux Chroma Green #389, Rosco).
In the AlphaScreen Inhibition Assay described here, protein A (Staphylococcus aureus) conjugated Acceptor beads are used together with streptavidin coated Donor beads (Perkin Elmer 6760617M). The Acceptor beads are pre-incubated with Fc-tagged recombinant human RAGE (rhRAGE-Fc) allowing binding of the rhRAGE-Fc to protein A on the beads. Biotinylated human S100A9 (biot-hS100A9) is pre-incubated with the low molecular test compounds. The pre-mixes are then added to the wells of a micro-plate and incubated allowing interaction between biot-hS100A9 and rhRAGE-Fc. Subsequent addition of streptavidin coated Donor beads causes binding of the streptavidin to the biotinylated hS100A9. After an additional incubation the signal is measured.
Without inhibitory compounds, the interaction of biot-hS100A9 to rhRAGE-Fc will bring the Acceptor and Donor beads in close proximity thus generating a high signal. With an inhibitor present the complex will not form resulting in a decreased signal.
The AlphaScreen assay method is used for screening of the inhibitory effect of different compound samples at fixed concentrations or for IC50 determination by varying the compound concentrations. Samples of test compounds and references are prepared from solutions in DMSO. Relevant reference inhibitors and DMSO are used as controls for defined inhibition and non-inhibition, respectively in the assay. The percent inhibition in assay for test compounds and references are calculated by comparing their obtained assay signals with the signal values for the control with only DMSO (no compound).
Assay concentration of biotinylated hS100A9 and rhRAGE-Fc are batch dependent, and are determined and defined by separate cross-titration experiments using this AlphaScreen inhibition method to verify the optimal setup regarding signal strength and achievement of a defined inhibition with relevant reference compounds. The Final assay concentrations of Acceptor and Donor beads are 20 μg/mL.
Assay buffer is prepared by adding CaCl2 and ZnCl2 to HBS-P and is used freshly prepared in the experiment.
Biotin-hS100A9 solution for the experiment is prepared by dilution of appropriate amount of stock solution biot-hS100A9 in assay buffer (with CaCl2 and ZnCl2) and incubation in room temperature for 30 minutes.
rhRAGE-Fc solution for the experiment is prepared by dilution appropriate amount of rhRAGE-Fc stock in assay buffer.
Protein A Acceptor beads are diluted in assay buffer and are added to an equal volume of the prepared diluted rhRAGE-Fc solution. The beads are light sensitive. The vial is covered with aluminum foil and incubated at room temperature in the dark until biot-hS100A9+compound incubation is finished (see below).
Streptavidin-coated Donor beads are diluted in assay buffer. The beads are very light sensitive. The vial is covered with aluminum foil and incubated at room temperature in the dark until use (see below).
Samples of test compounds, appropriate references and DMSO control are diluted in assay buffer. […]

SMILES | IC50
O=C(NC1(C(F)(F)F)C(=O)Nc2nc3cc(Cl)c(Cl)cc3n21)C1CCN(C(=O)CC(F)(F)F)CC1 (stereo not drawn) [Example 46, N-[10,11-dichloro-4-oxo-3-(trifluoromethyl)-2,5,7-triazatricyclo[6.4.0.0^2,6]dodeca-1(12),6,8,10-tetraen-3-yl]-1-(3,3,3-trifluoropropanoyl)piperidine-4-carboxamide] | 3800 nM
O=C(NC1(C(F)(F)F)C(=O)Nc2nc3cc(Cl)c(Cl)cc3n21)C1CNC1 (stereo not drawn) [Example 47, N-[10,11-dichloro-4-oxo-3-(trifluoromethyl)-2,5,7-triazatricyclo[6.4.0.0^2,6]dodeca-1(12),6,8,10-tetraen-3-yl]azetidine-3-carboxamide] | 3900 nM
CC(=O)N1CC(C(=O)NC2(C(F)(F)F)C(=O)Nc3nc4cc(Cl)c(Cl)cc4n32)C1 (stereo not drawn) [Example 49, 1-acetyl-N-[10,11-dichloro-4-oxo-3-(trifluoromethyl)-2,5,7-triazatricyclo-[6.4.0.0^2,6]-dodeca-1(12),6,8,10-tetraen-3-yl]azetidine-3-carboxamide] | 3900 nM
O=C(NC1(C(F)(F)F)C(=O)Nc2nc3cc(Cl)c(Cl)cc3n21)[C@@H]1CCN(S(=O)(=O)C2CCCC2)C1 (stereo partly drawn) [Example 51, (3R)-1-(cyclopentanesulfonyl)-N-[10,11-dichloro-4-oxo-3-(trifluoromethyl)-2,5,7-triaza-tricyclo[6.4.0.0^2,6]dodeca-1(12),6,8,10-tetraen-3-yl]pyrrolidine-3-carboxamide] | 1200 nM
O=C(NC1(C(F)(F)F)C(=O)Nc2nc3cc(Cl)c(Cl)cc3n21)C1CN(c2ccccn2)C1 (stereo not drawn) [Example 52, N-[10,11-dichloro-4-oxo-3-(trifluoromethyl)-2,5,7-triazatricyclo[6.4.0.0^2,6]dodeca-1(12),6,8,10-tetraen-3-yl]-1-(pyridin-2-yl)azetidine-3-carboxamide] | 700 nM
O=C(CCC1CCCCC1)NC1(C(F)(F)F)C(=O)Nc2nc3cc(Cl)c(Cl)cc3n21 (stereo not drawn) [Example 53, 3-cyclohexyl-N-[10,11-dichloro-4-oxo-3-(trifluoromethyl)-2,5,7-triazatricyclo[6.4.0.0^2,6]-dodeca-1(12),6,8,10-tetraen-3-yl]propanamide] | 700 nM
O=C(NC1(C(F)(F)F)C(=O)Nc2nc3cc(Cl)c(Cl)cc3n21)C1CCCC1 (stereo not drawn) [Example 54, N-[10,11-dichloro-4-oxo-3-(trifluoromethyl)-2,5,7-triazatricyclo[6.4.0.0^2,6]dodeca-1(12),6,8,10-tetraen-3-yl]cyclopentanecarboxamide] | 1600 nM
O=C(NC1(C(F)(F)F)C(=O)Nc2nc3cc(Cl)c(Cl)cc3n21)C1CCCCC1 (stereo not drawn) [Example 55, N-[10,11-dichloro-4-oxo-3-(trifluoromethyl)-2,5,7-triazatricyclo[6.4.0.0^2,6]dodeca-1(12),6,8,10-tetraen-3-yl]cyclohexanecarboxamide] | 1700 nM
O=C(NC1(C(F)(F)F)C(=O)Nc2nc3cc(Cl)c(Cl)cc3n21)c1cccc(Cl)c1 (stereo not drawn) [Example 56, 3-chloro-N-[10,11-dichloro-4-oxo-3-(trifluoromethyl)-2,5,7-triazatricyclo[6.4.0.0^2,6]-dodeca-1(12),6,8,10-tetraen-3-yl]benzamide] | 1400 nM
O=C(NC1(C(F)(F)F)C(=O)Nc2nc3cc(Cl)c(Cl)cc3n21)c1cc(Cl)cc(Cl)c1 (stereo not drawn) [Example 57, 3,5-dichloro-N-[10,11-dichloro-4-oxo-3-(trifluoromethyl)-2,5,7-triazatricyclo-[6.4.0.0^2,6]dodeca-1(12),6,8,10-tetraen-3-yl]benzamide] | 2800 nM
O=C(CN1CCOCC1)NC1(C(F)(F)F)C(=O)Nc2nc3cc(Cl)c(Cl)cc3n21 (stereo not drawn) [Example 60, N-[10,11-dichloro-4-oxo-3-(trifluoromethyl)-2,5,7-triazatricyclo[6.4.0.0^2,6]dodeca-1(12),6,8,10-tetraen-3-yl]-2-(morpholin-4-yl)acetamide] | 4000 nM
O=C(CCN1CCOCC1)NC1(C(F)(F)F)C(=O)Nc2nc3cc(Cl)c(Cl)cc3n21 (stereo not drawn) [Example 61, N-[10,11-dichloro-4-oxo-3-(trifluoromethyl)-2,5,7-triazatricyclo[6.4.0.0^2,6]dodeca-1(12),6,8,10-tetraen-3-yl]-3-(morpholin-4-yl)propanamide] | 2900 nM

Second part, the compound after the results:

IC50 | SMILES
1100 nM | O=C(NC1(C(F)(F)F)C(=O)Nc2nc3cc(Cl)c(Cl)cc3n21)c1cccc(Cl)n1 (stereo not drawn) [Example 62, 6-chloro-N-[10,11-dichloro-4-oxo-3-(trifluoromethyl)-2,5,7-triazatricyclo[6.4.0.0^2,6]-dodeca-1(12),6,8,10-tetraen-3-yl]pyridine-2-carboxamide]
1300 nM | O=C(NC1(C(F)(F)F)C(=O)Nc2nc3cc(Cl)c(Cl)cc3n21)c1cccc(OCC(F)(F)F)n1 (stereo not drawn) [Example 64, N-[10,11-dichloro-4-oxo-3-(trifluoromethyl)-2,5,7-triazatricyclo[6.4.0.0^2,6]dodeca-1(12),6,8,10-tetraen-3-yl]-6-(2,2,2-trifluoroethoxy)pyridine-2-carboxamide]
2200 nM | CN(C)c1cccc(C(=O)NC2(C(F)(F)F)C(=O)Nc3nc4cc(Cl)c(Cl)cc4n32)n1 (stereo not drawn) [Example 65, N-[10,11-dichloro-4-oxo-3-(trifluoromethyl)-2,5,7-triazatricyclo[6.4.0.0^2,6]dodeca-1(12),6,8,10-tetraen-3-yl]-6-(dimethylamino)pyridine-2-carboxamide]
400 nM | O=C(NC1(C(F)(F)F)C(=O)Nc2nc3cc(Cl)c(Cl)cc3n21)c1cccc(NC2CCCCC2)n1 (stereo not drawn) [Example 66, 6-(cyclohexylamino)-N-[10,11-dichloro-4-oxo-3-(trifluoromethyl)-2,5,7-triazatricyclo-[6.4.0.0^2,6]dodeca-1(12),6,8,10-tetraen-3-yl]pyridine-2-carboxamide]
2000 nM | CCNc1cccc(C(=O)NC2(C(F)(F)F)C(=O)Nc3nc4cc(C)c(C)cc4n32)n1 (stereo not drawn) [Example 67, N-[10,11-dimethyl-4-oxo-3-(trifluoromethyl)-2,5,7-triazatricyclo[6.4.0.0^2,6]dodeca-1(12),6,8,10-tetraen-3-yl]-6-(ethylamino)pyridine-2-carboxamide]
4900 nM | O=C(CCC1CCCCN1)NC1(C(F)(F)F)C(=O)Nc2nc3cc(Cl)c(Cl)cc3n21 (stereo not drawn) [Example 69, N-[10,11-dichloro-4-oxo-3-(trifluoromethyl)-2,5,7-triazatricyclo[6.4.0.0^2,6]dodeca-1(12),6,8,10-tetraen-3-yl]-3-(piperidin-2-yl)propanamide]
1300 nM | CCNc1cccc(C(=O)NC2(C(F)(F)F)C(=O)Nc3nc4cc(Cl)c(Cl)cc4n32)n1 (stereo not drawn) [Example 70, N-[10,11-dichloro-4-oxo-3-(trifluoromethyl)-2,5,7-triazatricyclo[6.4.0.0^2,6]dodeca-1(12),6,8,10-tetraen-3-yl]-6-(ethylamino)pyridine-2-carboxamide]
200 nM | COCCNc1cccc(C(=O)NC2(C(F)(F)F)C(=O)Nc3nc4cc(Cl)c(Cl)cc4n32)n1 (stereo not drawn) [Example 71, N-[10,11-dichloro-4-oxo-3-(trifluoromethyl)-2,5,7-triazatricyclo[6.4.0.0^2,6]dodeca-1(12),6,8,10-tetraen-3-yl]-6-[(2-methoxyethyl)amino]pyridine-2-carboxamide]
2800 nM | O=C(CCC1CCCC1)NC1(C(F)(F)F)C(=O)Nc2nc3cc(F)c(F)cc3n21 (stereo not drawn) [Example 73, 3-cyclopentyl-N-[10,11-difluoro-4-oxo-3-(trifluoromethyl)-2,5,7-triazatricyclo-[6.4.0.0^2,6]dodeca-1(12),6,8,10-tetraen-3-yl]propanamide]
